Consider 2 compounds from PMC6196238, “Novobiocin, a Newly Found TRPV1 Inhibitor, Attenuates the Expression of TRPV1 in Rat Intestine and Intestinal Epithelial Cell Line IEC-6” (Frontiers in Pharmacology, 2018).

Structures are written as SMILES.

Data set [1] has as its system rat intestine (jejunum, ileum, colon). Put plainly: Ussing chamber intestinal permeability of CAP. The class given is in vitro ADME. Particulars: for fold-inhibition factor of CAP Papp: vs CAP only. Here is the method: NOVO was also prepared in HEPES buffer to yield final concentration at 5, 10, 25, 50, 100, and 200 μM. […] Different portions of the rat intestine were excised and flushed with HEPES buffer, including jejunum (after the first 5 cm of the top of small intestine), ileum (the distal part of small intestine) and colon (proximal to cecal-colonic junction), and incubated in the ice-cold HEPES buffer. Next, 3–4 cm of the intestine was clipped, and the serosa was removed rapidly on an ice-cold glass. The intestinal segments were fixed in the Ussing chamber. Finally, 7 mL of HEPES buffer was added to the receiving side while an equal volume of drug solution to the dosing side. […] All the samples were kept at -20°C till HPLC analysis.
In brief, samples were injected into a C18 column (3.5 μm, 2.1 mm × 100 mm). An aliquot of 20 μL of sample solutions were injected.

Data set [2] relates to TRPV1. Put plainly: TRPV1 expression in IEC-6/TRPV1+ cells (qRT-PCR, western blot, immunofluorescence). The data set is classed as cell-based, rat. Particulars: for fluorescence intensity of TRPV1: pre-treatment 24 h, NOVO 10 μM, SB-705498 0.1 μM, Figure 2G. On the procedure:
The IEC-6/TRPV1^+ cells were cultured on coverslips in 24-well plates overnight. Briefly, cells were stimulated with NOVO (10 μM), SB-705498 (0.1 μM) for 24 h. At the end of incubation, cells were fixed with 4% paraformaldehyde in 0.1 M PBS for 20 min. The cells were then treated by 0.25% (v/v) TritonX-100 for 5 min, and washed again. Followed by blocking in 5% (v/v) horse serum for 60 min, cells were then incubated with primary antibodies for the anti-TRPV1 receptor antibody (1:1000, NB100-1617, Novus) overnight in a 4°C refrigerator. Alexa Flour® 488-conjugated goat anti-rabbit IgG (Zhongshan Goldenbridge Biotechnology) at 1:100 dilution was used as the secondary antibody that incubated cells for 60 min. Thereafter, the coverslips were mounted face down onto slides with mounting medium containing DAPI and stored at 4°C before microscopy. Fluorescence images were captured using a fluorescence microscope (Olympus, Japan).
(§1) qRT-PCR was performed to evaluate TRPV1 mRNA expression after NOVO treatment. The total RNA of the cells or tissues was isolated with an RNA isolation plus kit (Takara Shuzo, Kyoto, Japan), according to the manufacturer’s protocol. The quality of RNA was confirmed by agarose gel electrophoresis and an optical density measurement of A260/A280. The cDNAs were prepared using SYBR® Premix Ex Taq^TMII (Takara Shuzo, Kyoto, Japan) and the following primers: 5′-[…]-3′ and 5′-[…]-3′ for TRPV1, and 5′-[…]-3′, 5′-[…]-3′ for GAPDH were carried out by using the LightCycler480 System. The relative expression was calculated by the 2^-ΔΔC(t) method ([Livak and Schmittgen, 2001]).
(§2) After treatment, the cells or tissues were collected and washed with PBS. Membrane protein extracts were obtained with Membrane Protein Extraction Kit (Thermo Fisher Scientific Inc, United States), according to the manufacturer’s protocol. Protein concentrations were quantified by using the BCA Protein Assay kit (Beyotime, Shanghai, China). Equal amounts of protein were resolved by SDS-PAGE on a 10% polyacrylamide gel and transferred onto a polyvinylidene fluoride membrane. […]
Background: Real-time PCR tracks product formation cycle by cycle.

Data set [3] concerns rat intestine (jejunum, ileum, colon). Kind of data set: Ussing chamber intestinal permeability of NOVO. The data set is classed as in vitro ADME. Particulars: jejunum vs ileum and colon; Figure 1. Here is the method:
The intestinal permeability of CAP in vitro was performed using Ussing chamber. […] NOVO was also prepared in HEPES buffer to yield final concentration at 5, 10, 25, 50, 100, and 200 μM. Animal intestinal segments for the permeability study were prepared in accordance with the experimental method as described previously ([Yodoya et al., 1994]; [Wallon et al., 2005]; [Duan et al., 2013]). Briefly, male SD rats, weighting 240–260 g, were fasted for 18 h before each experiment and anesthetized by injecting 10 % chloral hydrate anesthesia (i.p.). Different portions of the rat intestine were excised and flushed with HEPES buffer, including jejunum (after the first 5 cm of the top of small intestine), ileum (the distal part of small intestine) and colon (proximal to cecal-colonic junction), and incubated in the ice-cold HEPES buffer. Next, 3–4 cm of the intestine was clipped, and the serosa was removed rapidly on an ice-cold glass. The intestinal segments were fixed in the Ussing chamber. Finally, 7 mL of HEPES buffer was added to the receiving side while an equal volume of drug solution to the dosing side. All the chambers were maintained at 37°C by using a warm water-circulating pump and a mixture of 95% O2 and 5% CO2 aerated to ensure the activity of the membrane. […]

Data set [4] concerns TRPV1. Put plainly: TRPV1 mRNA and protein expression in rat intestine after oral administration (qRT-PCR, western blot). The data set is classed as in vivo. Here is the method:
Forty male SD rats (200–250 g) were used for orally administered experiment. The animals were arbitrarily distributed in eight different groups and each group was treated with its respective dose of calculated amount. Group I was orally administered 0.9% normal saline (5 mL⋅kg^-1). Group II labeled as positive control was orally administered with 10 μM RR (5 mL⋅kg^-1). Rats of Group […] were treated with 5 mL⋅kg^-1 of NOVO dissolved in 0.9% normal saline (5, 10, 25, and 50 μM, respectively). The animals were orally administered twice a day for 2 weeks. After another 14 days, animals were sacrificed and then the jejunum, ileum and colon tissue were excised. The intestinal tissues were frozen in liquid nitrogen, and then stored at -80°C for protein or ribonucleic acid (RNA) isolation.
as §1, §2

Regarding `CO[C@@H]1[C@@H](OC(N)=O)[C@@H](O)[C@H](Oc2ccc3c(O)c(NC(=O)c4ccc(O)c(CC=C(C)C)c4)c(=O)oc3c2C)OC1(C)C` [NOVO, novobiocin], the “permeability of CAP in the Ussing chamber experiment” value in data set [1] (NOVO concentration higher than 100 μM, data not shown) was “increased”. In addition, the “Papp of CAP” value in data set [1] (colon, CAP + 5 μM inhibitor) is recorded as 8.28 ± 2.55 ×10^-6, cm⋅s^-1; in data set [1] (colon, CAP + 10 μM inhibitor), 6.05 ± 1.85 ×10^-6, cm⋅s^-1; in data set [1] (colon, CAP + 25 μM inhibitor), 5.65 ± 2.04 ×10^-6, cm⋅s^-1; in data set [1] (colon, CAP + 50 μM inhibitor), 9.79 ± 2.20 ×10^-6, cm⋅s^-1; in data set [1] (ileum, CAP + 5 μM inhibitor) it was 3.40 ± 0.76 ×10^-6, cm⋅s^-1; in data set [1] (ileum, CAP + 10 μM inhibitor) it was 2.17 ± 0.58 ×10^-6, cm⋅s^-1. The “Papp of CAP” value was 4.02 ± 0.42 ×10^-6, cm⋅s^-1 in data set [1] (ileum, CAP + 25 μM inhibitor); 5.23 ± 0.25 ×10^-6, cm⋅s^-1 in data set [1] (ileum, CAP + 50 μM inhibitor); 1.96 ± 0.25 ×10^-6, cm⋅s^-1 in data set [1] (jejunum, CAP + 5 μM inhibitor); 1.36 ± 0.47 ×10^-6, cm⋅s^-1 in data set [1] (jejunum, CAP + 10 μM inhibitor); 1.60 ± 0.38 ×10^-6, cm⋅s^-1 in data set [1] (jejunum, CAP + 25 μM inhibitor); 2.11 ± 0.04 ×10^-6, cm⋅s^-1 in data set [1] (jejunum, CAP + 50 μM inhibitor). The “fold-inhibition factor of CAP Papp” value in data set [1] (colon, CAP + 5 μM inhibitor) was 2.41 fold; in data set [1] (colon, CAP + 10 μM inhibitor), 3.30 fold; in data set [1] (colon, CAP + 25 μM inhibitor), 3.54 fold; in data set [1] (colon, CAP + 50 μM inhibitor) it was 2.04 fold; in data set [1] (ileum, CAP + 5 μM inhibitor), 2.17 fold; in data set [1] (ileum, CAP + 10 μM inhibitor), 3.40 fold. Besides, the “fold-inhibition factor of CAP Papp” value in data set [1] (ileum, CAP + 25 μM inhibitor) was 1.83 fold; in data set [1] (ileum, CAP + 50 μM inhibitor), 1.41 fold; in data set [1] (jejunum, CAP + 5 μM inhibitor), 1.60 fold; in data set [1] (jejunum, CAP + 10 μM inhibitor) it was 2.31 fold; in data set [1] (jejunum, CAP + 25 μM inhibitor), 1.97 fold; in data set [1] (jejunum, CAP + 50 μM inhibitor), 1.49 fold. Further, in data set [2] (2.5-10 μM NOVO, over 24 h, Figures 2A,B,F), the “expression of TRPV1 mRNA and protein” value is listed as “dramatically attenuate”. Also, the “fluorescence intensity of TRPV1” value in data set [2] was “reduced”. In addition, the “permeability of NOVO across intestinal segments” value in data set [3] was “much greater in the jejunum than in the ileum and colon”. The “TRPV1 protein expression in rat intestine” value in data set [4] (5 μM NOVO p.o., western blot) is “not sufficient to attenuate TRPV1 protein expression”. In addition, in data set [4] (14 days p.o. NOVO 5-50 μM twice per day, jejunum, ileum, colon, Figure 2D), the “TRPV1 mRNA level in rat intestine” value is listed as “decreased markedly”. In addition, the “TRPV1 protein level in rat intestine” value in data set [4] (14 days p.o. NOVO twice per day, western blot, Figure 2E) is given as “decreased the TRPV1 protein level in a dose-dependent manner”.
In the case of `O=C(Nc1ccccc1Br)N[C@@H]1CCN(c2ccc(C(F)(F)F)cn2)C1` [SB-705498], the “fluorescence intensity of TRPV1” value in data set [2] is “reduced”.
